# Assay results reported in ChEMBL document CHEMBL1201862, “PubChem BioAssay data set” (2004).
#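 Grown in 96-well plates, cells were treated for 48 hours with each compound at five concentrations. Insufficient inhibition: endpoint recorded as highest concentration tested. At the GI50, growth is halved.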 Calls of active or inactive are those of the source. Cut-off read from the data, not from the text of the source: active = GI50 up to about 1.1 µM and inactive = higher.
# Assays:
# Assay in all cases: NCI-60 cell line screen, 48 h
# COLO 205 = test system: COLO 205
# U-251 = test system: U-251
# SF-539 = test system: SF-539
# NCI-H460 = test system: NCI-H460
# SR = test system: SR
# A498 = test system: A498
# HL-60 = test system: HL-60
# A549 = test system: A549
# SNB-75 = test system: SNB-75
# SF-295 = test system: SF-295
# SK-MEL-5 = test system: SK-MEL-5
# CAKI-1 = test system: CAKI-1
# IGROV-1 = test system: IGROV-1
# NCI-H522 = test system: NCI-H522
# T47D = test system: T47D
# SNB-19 = test system: SNB-19
# UACC-257 = test system: UACC-257
# Hs-578T = test system: Hs-578T
# BT-549 = test system: BT-549
# SK-MEL-2 = test system: SK-MEL-2
# MDA-N = test system: MDA-N
# MOLT-4 = test system: MOLT-4
# SK-OV-3 = test system: SK-OV-3
# MDA-MB-231 = test system: MDA-MB-231
# 786-0 = test system: 786-0
# PC-3 = test system: PC-3
# EKVX = test system: EKVX
# HOP-62 = test system: HOP-62
# K562 = test system: K562
# DU-145 = test system: DU-145
# HCT-116 = test system: HCT-116
# LOX IMVI = test system: LOX IMVI
# TK-10 = test system: TK-10
# KM12 = test system: KM12
# OVCAR-5 = test system: OVCAR-5
# UACC-62 = test system: UACC-62
# OVCAR-3 = test system: OVCAR-3
# RPMI-8226 = test system: RPMI-8226
# HOP-92 = test system: HOP-92
# MCF7 = test system: MCF7
# SK-MEL-28 = test system: SK-MEL-28
# MDA-MB-435 = test system: MDA-MB-435
# OVCAR-4 = test system: OVCAR-4
# SW-620 = test system: SW-620
# RXF 393 = test system: RXF 393
# SN12C = test system: SN12C
# HCT-15 = test system: HCT-15
# M14 = test system: M14
# NCI-H226 = test system: NCI-H226
# SF-268 = test system: SF-268
# UO-31 = test system: UO-31
# HT-29 = test system: HT-29
# NCI/ADR-RES = test system: NCI/ADR-RES
# Malme-3M = test system: Malme-3M
# ACHN = test system: ACHN
# CCRF-CEM = test system: CCRF-CEM
# OVCAR-8 = test system: OVCAR-8
# HCC 2998 = test system: HCC 2998
# NCI-H23 = test system: NCI-H23
structure (smiles),measurement,setting,value
COC(=O)/C(C#N)=C(\N)c1c(C)c2ccccc2oc1=N,GI50,COLO 205,> 100 µM (inactive)
same,GI50,U-251,> 100 µM (inactive)
same,GI50,SF-539,> 100 µM (inactive)
same,GI50,NCI-H460,> 100 µM (inactive)
same,GI50,SR,> 100 µM (inactive)
same,GI50,A498,> 100 µM (inactive)
same,GI50,HL-60,> 100 µM (inactive)
same,GI50,A549,> 100 µM (inactive)
same,GI50,SNB-75,> 100 µM (inactive)
same,GI50,SF-295,> 100 µM (inactive)
same,GI50,SK-MEL-5,> 100 µM (inactive)
same,GI50,CAKI-1,> 10 µM (inactive)
same,GI50,IGROV-1,> 100 µM (inactive)
same,GI50,NCI-H522,> 100 µM (inactive)
same,GI50,T47D,> 100 µM (inactive)
same,GI50,SNB-19,> 100 µM (inactive)
same,GI50,UACC-257,> 100 µM (inactive)
same,GI50,Hs-578T,> 100 µM (inactive)
same,GI50,BT-549,64.6 µM (inactive)
same,GI50,SK-MEL-2,> 100 µM (inactive)
same,GI50,MDA-N,> 100 µM (inactive)
same,GI50,MOLT-4,> 100 µM (inactive)
same,GI50,SK-OV-3,> 100 µM (inactive)
same,GI50,MDA-MB-231,86.7 µM (inactive)
same,GI50,786-0,> 100 µM (inactive)
same,GI50,PC-3,> 100 µM (inactive)
same,GI50,EKVX,> 100 µM (inactive)
same,GI50,HOP-62,> 100 µM (inactive)
same,GI50,K562,> 100 µM (inactive)
same,GI50,DU-145,> 100 µM (inactive)
same,GI50,HCT-116,> 100 µM (inactive)
same,GI50,LOX IMVI,> 100 µM (inactive)
same,GI50,TK-10,> 100 µM (inactive)
same,GI50,KM12,> 100 µM (inactive)
same,GI50,OVCAR-5,> 100 µM (inactive)
same,GI50,UACC-62,> 100 µM (inactive)
same,GI50,OVCAR-3,> 100 µM (inactive)
same,GI50,RPMI-8226,> 100 µM (inactive)
same,GI50,HOP-92,> 100 µM (inactive)
same,GI50,MCF7,> 100 µM (inactive)
same,GI50,SK-MEL-28,> 100 µM (inactive)
same,GI50,MDA-MB-435,> 100 µM (inactive)
same,GI50,OVCAR-4,> 100 µM (inactive)
same,GI50,SW-620,> 100 µM (inactive)
same,GI50,RXF 393,> 100 µM (inactive)
same,GI50,SN12C,> 100 µM (inactive)
same,GI50,HCT-15,> 100 µM
Cc1ccc(N2CCC3(CC2)OCCO3)cc1,GI50,COLO 205,> 100 µM (inactive)
same,GI50,U-251,> 100 µM (inactive)
same,GI50,M14,> 100 µM (inactive)
same,GI50,SF-539,> 100 µM (inactive)
same,GI50,NCI-H226,> 100 µM (inactive)
same,GI50,NCI-H460,> 100 µM (inactive)
same,GI50,SR,> 100 µM (inactive)
same,GI50,A498,> 100 µM (inactive)
same,GI50,SF-268,> 100 µM (inactive)
same,GI50,HL-60,> 100 µM (inactive)
same,GI50,A549,> 100 µM (inactive)
same,GI50,SNB-75,> 100 µM (inactive)
same,GI50,UO-31,> 100 µM (inactive)
same,GI50,SF-295,> 100 µM (inactive)
same,GI50,SK-MEL-5,> 100 µM (inactive)
same,GI50,CAKI-1,> 100 µM (inactive)
same,GI50,IGROV-1,> 100 µM (inactive)
same,GI50,NCI-H522,> 100 µM (inactive)
same,GI50,T47D,> 100 µM (inactive)
same,GI50,SNB-19,> 100 µM (inactive)
same,GI50,UACC-257,> 100 µM (inactive)
same,GI50,Hs-578T,> 100 µM (inactive)
same,GI50,BT-549,> 100 µM (inactive)
same,GI50,SK-MEL-2,> 100 µM (inactive)
same,GI50,HT-29,> 100 µM (inactive)
same,GI50,MDA-N,> 100 µM (inactive)
same,GI50,MOLT-4,> 100 µM (inactive)
same,GI50,SK-OV-3,> 100 µM (inactive)
same,GI50,MDA-MB-231,> 100 µM (inactive)
same,GI50,786-0,> 100 µM (inactive)
same,GI50,PC-3,> 100 µM (inactive)
same,GI50,EKVX,> 100 µM (inactive)
same,GI50,HOP-62,> 100 µM (inactive)
same,GI50,NCI/ADR-RES,> 100 µM (inactive)
same,GI50,K562,> 100 µM (inactive)
same,GI50,DU-145,> 100 µM (inactive)
same,GI50,HCT-116,> 100 µM (inactive)
same,GI50,TK-10,> 100 µM (inactive)
same,GI50,KM12,> 100 µM (inactive)
same,GI50,OVCAR-5,> 100 µM (inactive)
same,GI50,UACC-62,> 100 µM (inactive)
same,GI50,OVCAR-3,> 100 µM (inactive)
same,GI50,RPMI-8226,> 100 µM (inactive)
same,GI50,Malme-3M,> 100 µM (inactive)
same,GI50,ACHN,> 100 µM (inactive)
same,GI50,HOP-92,> 100 µM (inactive)
same,GI50,SK-MEL-28,> 100 µM (inactive)
same,GI50,MDA-MB-435,> 100 µM (inactive)
same,GI50,CCRF-CEM,> 100 µM (inactive)
same,GI50,OVCAR-4,> 100 µM (inactive)
same,GI50,SW-620,> 100 µM (inactive)
same,GI50,RXF 393,> 100 µM (inactive)
same,GI50,SN12C,> 100 µM (inactive)
same,GI50,OVCAR-8,> 100 µM (inactive)
same,GI50,HCT-15,> 100 µM
same,GI50,HCC 2998,> 100 µM (inactive)
same,GI50,NCI-H23,> 100 µM (inactive)
CCN(CC)C1Oc2cc3c(cc2C(c2ccc(OC)cc2)C1C)OCO3 (stereo not given),GI50,COLO 205,17.6 µM (inactive)
same,GI50,U-251,22.2 µM (inactive)
same,GI50,M14,21.2 µM (inactive)
same,GI50,SF-539,20.2 µM (inactive)
same,GI50,NCI-H226,23 µM (inactive)
same,GI50,NCI-H460,17.1 µM (inactive)
same,GI50,SR,12.5 µM (inactive)
same,GI50,A498,19.7 µM (inactive)
same,GI50,SF-268,17.3 µM (inactive)
same,GI50,A549,22.6 µM (inactive)
same,GI50,SNB-75,20.3 µM (inactive)
same,GI50,UO-31,19.7 µM (inactive)
same,GI50,SF-295,21.7 µM (inactive)
same,GI50,SK-MEL-5,17.3 µM (inactive)
same,GI50,CAKI-1,24.9 µM (inactive)
same,GI50,IGROV-1,29.5 µM (inactive)
same,GI50,NCI-H522,15 µM (inactive)
same,GI50,T47D,26.9 µM (inactive)
same,GI50,SNB-19,26.9 µM (inactive)
same,GI50,UACC-257,15.9 µM (inactive)
same,GI50,Hs-578T,18.7 µM (inactive)
same,GI50,BT-549,20.8 µM (inactive)
same,GI50,SK-MEL-2,17.6 µM (inactive)
same,GI50,HT-29,18.7 µM (inactive)
same,GI50,MDA-N,17.5 µM (inactive)
same,GI50,MOLT-4,17.6 µM (inactive)
same,GI50,SK-OV-3,40.2 µM (inactive)
same,GI50,MDA-MB-231,23.4 µM (inactive)
same,GI50,786-0,21.7 µM (inactive)
same,GI50,PC-3,23.8 µM (inactive)
same,GI50,EKVX,18.3 µM (inactive)
same,GI50,HOP-62,24.8 µM (inactive)
same,GI50,K562,19.1 µM (inactive)
same,GI50,DU-145,25.6 µM (inactive)
same,GI50,HCT-116,15.8 µM (inactive)
same,GI50,LOX IMVI,16.1 µM (inactive)
same,GI50,TK-10,18.7 µM (inactive)
same,GI50,KM12,20 µM (inactive)
same,GI50,OVCAR-5,26.2 µM (inactive)
same,GI50,UACC-62,19.1 µM (inactive)
same,GI50,OVCAR-3,18.2 µM (inactive)
same,GI50,RPMI-8226,17 µM (inactive)
same,GI50,Malme-3M,18.3 µM (inactive)
same,GI50,ACHN,22.5 µM (inactive)
same,GI50,HOP-92,25.3 µM (inactive)
same,GI50,MCF7,20.9 µM (inactive)
same,GI50,SK-MEL-28,20.4 µM (inactive)
same,GI50,MDA-MB-435,18.9 µM (inactive)
same,GI50,CCRF-CEM,15.5 µM (inactive)
same,GI50,SW-620,30.3 µM (inactive)
same,GI50,RXF 393,18.9 µM (inactive)
same,GI50,SN12C,21.7 µM (inactive)
same,GI50,OVCAR-8,19.5 µM (inactive)
same,GI50,HCT-15,18.9 µM
same,GI50,HCC 2998,19 µM (inactive)
same,GI50,NCI-H23,21.8 µM (inactive)
